{
  "source": "patent US10106542B2",
  "about": "“Substituted 6,7-dihydropyrazolo[1,5-a]pyrazines as negative allosteric modulators of mGluR2 receptors” (Janssen Pharmaceutica NV, priority 2013, dated 2018)",
  "key": {"human mGlu2 receptor": {"biological_target": "T1, human mGlu2 receptor (Homo sapiens, UniProt Q14416)", "T1 construct": "expressed in transfected cells; host or cells: CHO cells (membrane preparation)", "T1 sequence (Q14416 19-872)": "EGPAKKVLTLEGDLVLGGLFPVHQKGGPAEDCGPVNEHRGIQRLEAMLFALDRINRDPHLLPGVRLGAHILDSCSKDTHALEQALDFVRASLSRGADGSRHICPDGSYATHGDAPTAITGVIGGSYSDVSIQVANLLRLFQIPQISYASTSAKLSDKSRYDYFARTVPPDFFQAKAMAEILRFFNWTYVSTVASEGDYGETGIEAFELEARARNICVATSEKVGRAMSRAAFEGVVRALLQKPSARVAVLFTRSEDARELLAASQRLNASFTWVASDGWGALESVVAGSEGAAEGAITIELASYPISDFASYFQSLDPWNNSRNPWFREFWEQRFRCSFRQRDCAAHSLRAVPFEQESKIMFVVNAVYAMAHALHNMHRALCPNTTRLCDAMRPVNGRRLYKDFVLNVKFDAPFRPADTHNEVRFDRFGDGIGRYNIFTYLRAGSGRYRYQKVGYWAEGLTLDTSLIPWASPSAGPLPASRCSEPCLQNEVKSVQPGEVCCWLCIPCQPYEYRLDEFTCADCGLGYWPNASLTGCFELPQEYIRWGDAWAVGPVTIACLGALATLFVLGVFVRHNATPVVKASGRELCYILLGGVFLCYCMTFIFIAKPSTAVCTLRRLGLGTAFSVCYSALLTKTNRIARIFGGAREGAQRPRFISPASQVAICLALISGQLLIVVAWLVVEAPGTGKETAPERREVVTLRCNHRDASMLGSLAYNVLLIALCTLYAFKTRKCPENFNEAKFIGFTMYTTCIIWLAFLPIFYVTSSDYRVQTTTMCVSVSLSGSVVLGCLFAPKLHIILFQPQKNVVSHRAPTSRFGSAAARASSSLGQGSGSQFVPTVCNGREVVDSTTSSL", "assay": "[35S]GTPγS binding assay (mGluR2 negative allosteric modulation)", "assay_type": "biochemical", "in_short": "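Negative allosteric modulation read as [35S]GTPγS (0.1 nM) incorporation over 30 min at 30 °C, expressed as % of the response to an EC80-equivalent glutamate concentration. Assay used 7 μg human mGlu2 CHO membrane protein in HEPES pH 7.4 buffer with NaCl, MgCl2, GDP and saponin; bound label collected by filtration.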"}, "[1]": {"test_system": "rat hippocampal brain slices", "assay": "Reversal of mGluR2-agonism (LY-354740-depressed fEPSP) in hippocampal brain slices", "assay_type": "cell-based", "from_the_text": "7) Reversal of mGluR2-Agonism in Hippocampal Brain Slices Introduction\nElectrophysiology recordings of field excitatory postsynaptic potentials (fEPSPs) in acute hippocampal brain slices represent a model for testing synaptic transmission and plasticity. The effect of Co. No. 1 on synaptic transmission and plasticity in dentate gyms synapses was investigated using this model.\n(§1) Recordings of fEPSPs were made from hippocampal brain slices using a multi-electrode array (MEA) biochip, and 3-dimensional-(3D) tip electrodes, according to a standard protocol. These recordings were used to monitor glutamate-mediated synaptic transmission (FIG. 4)."}, "Male Wiga Wistar rats": {"test_system": "Male Wiga Wistar rats", "assay": "Reversal of LY-404039-induced decrease of palpebral opening in apomorphine-challenged rats", "assay_type": "in vivo", "conditions": "Rattus norvegicus, reversal of LY-404039-induced decrease of palpebral opening (cumulative score >26) in apomorphine challenged rats", "method": "6) Reversal of LY-404039-Induced Decrease of Palpebral Opening in Apomorphine-Challenged Rats.\nMale Wiga Wistar rats (Crl:WI; Charles River Germany; 220±40 g) were housed under standard laboratory conditions (21±2° C.; 50-65% relative humidity; light-dark cycle set at 12 h; lights on at 6.00 h) and fasted overnight prior to the start of the experiments (tap water remained available ad libitum). During the test period, they were housed in individual cages. The local Ethical Committee approved all studies in compliance with the Declaration of Helsinki. Palpebral opening was scored every 5 min over the first hour after injection of apomorphine (1.0 mg/kg, i.v.) in animals either pretreated or not pretreated with LY-404039 (2.5 mg/kg, s.c.) at 1 h prior to the apomorphine injection. The animals were also pretreated with test compound or solvent at a predefined interval before apomorphine challenge. The score system was: (5) exophthalmos, (4) wide open, (3) open for three-quarters, (2) half open, (1) open for one-quarter, (0) closed. The scores for palpebral opening were cumulated over the 60-min observation period. A cumulative palpebral opening score >26 was selected for drug-induced reversal of the LY-404039-induced decrease of palpebral opening (occurrence in 3.2% of control animals pretreated with LY-404039 (n=154) versus in 99.5% of control rats not pretreated with LY-404039 (n=6335)).\nIn animals receiving apomorphine alone the median palpebral opening is 43 whereas in animals receiving apomorphine and LY-404039, the median palpebral opening is 17."}, "[2]": {"test_system": "rat hippocampal brain slices", "assay": "Long-term potentiation in the dentate gyrus of hippocampal brain slices", "assay_type": "cell-based", "conditions": "10 μM", "method": "as §1\nSubsequently, the effects of Co. No. 1 on synaptic function using long-term potentiation (LTP) protocols in the dentate gyms (Goeldner et. al., Neuropharmacology 2013, 64, 337-346) were evaluated.\nSmall magnitude LTP (110%) was induced using isolated glutamatergic-mediated fEPSP: trains of theta-burst stimulation that are known to induce LTP at these particular synapses were applied (Dinklo et al., J. Pharmacol. Exp. Ther. 2011, 336(2), 560-574). In the presence of 10 μM Co. No. 1, the magnitude of LTP was enhanced by 150% compared to baseline (p=0.005). […] At the end of the experiments, addition of 1 mM kynurenic acid to block glutamatergic neurotransmission, confirmed that the post-synaptic response is mediated by glutamate neurotransmission."}},
  "data": [
    {"compound": "Cc1cc(-c2cnn3c2C(=O)N(c2ccc(C(F)(F)F)cc2)C[C@@H]3C)ccn1", "note": "[compound 1, (7S)-7-Methyl-3-(2-methylpyridin-4-yl)-5-[4-(trifluoromethyl)phenyl]-6,7-dihydropyrazolo[1,5-a]pyrazin-4(5H)-one]", "values": [
      {"measurement": "GTPγS - hmGluR2 anGT pIC50", "setting": "human mGlu2 receptor; membranes from CHO cells transfected with human mGlu2 receptor, glutamate 60 μM, pIC50 = −log IC50 (M)", "result": 8.05},
      {"measurement": "Emax", "setting": "human mGlu2 receptor; relative maximal effect: maximal % inhibition relative to the control glutamate response, read-out: GTPγS - hmGluR2 anGT Emax", "result": 106, "unit": "%"},
      {"measurement": "paired-pulse ratio (PPR)", "setting": "[1]; 10 μM Co. No. 1 after LY-354740 1 μM", "result": "decrease of the PPR"},
      {"measurement": "recovery of the LY-354740-induced depression of fEPSP", "setting": "[1]; 10 μM, fifteen min after application, LY-354740 1 μM, n=17 slices from 4 rats", "result": 80, "unit": "%"},
      {"measurement": "ED50", "setting": "Male Wiga Wistar rats; Route PO", "result": 0.45, "unit": "mg/kg"},
      {"measurement": "ED50", "setting": "Male Wiga Wistar rats; Route SC", "result": 0.3, "unit": "mg/kg"},
      {"measurement": "post-theta potentiation (PTP)", "setting": "[2]; vehicle 120%, p=0.01, 22 slices from 4 SD rats", "result": 160, "unit": "%"},
      {"measurement": "magnitude of LTP compared to baseline", "setting": "[2]; weak theta-burst stimulation, p=0.005, control LTP 110%", "result": 150, "unit": "%"}
    ]}
  ]
}
